For this experiment, the target named is Sigma non-opioid intracellular receptor 1 (Cavia porcellus, UniProt Q60492). Description: Binding Affinity Assay. How it is done: An appropriate amount of homogenization buffer was added to the prepared membrane, and was dispersed into a suspension using a homogenizer, protein concentration was measured to be 4 mg/ml. 100 micrograms of protein were added to each well of a 96-well plate, with a volume of 90 μl. […] [3H]-(+)-pentazocine (Perkin-Elmer, Cat #NET1056250UC) was added to each well (final concentration of 10 nM). The 96-well plate was incubated in a constant temperature water bath (25° C., 180 minutes). […] After washing, the samples were dried in a 37° C. oven.
Sequence of Sigma non-opioid intracellular receptor 1 (Q60492 whole entry): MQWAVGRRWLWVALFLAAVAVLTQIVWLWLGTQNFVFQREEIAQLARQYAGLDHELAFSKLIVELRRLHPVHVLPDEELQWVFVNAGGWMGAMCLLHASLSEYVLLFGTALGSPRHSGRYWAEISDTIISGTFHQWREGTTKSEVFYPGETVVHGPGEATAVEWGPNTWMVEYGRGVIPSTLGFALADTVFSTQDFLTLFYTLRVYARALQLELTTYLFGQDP

Usually Ki stands for the equilibrium dissociation constant of an inhibitor or competing ligand from its target. In the case of `Clc1ccc(-c2noc(COCCN3CCOCC3)c2Br)cc1Cl` [US20240317745, Compound 74], the affinity, expressed as Ki, was 84.4 nM.
For the molecule `OC1CCN(Cc2cc(-c3ccc(F)c(F)c3)no2)CC1` [US20240317745, Compound 37], the affinity corresponds to a Ki of 308 nM.
In turn, `OC1CCN(CCOCc2cc(-c3ccc(Cl)c(Cl)c3)no2)CC1` [US20240317745, Compound 65] returned a Ki of 39.6 nM. This Ki lies about 7.8-fold lower than the previous one.
Molecule `Fc1ccc(-c2cc(COCCN3CCOCC3)on2)cc1F` [US20240317745, Compound 1] gave a Ki of 80.3 nM.
